# Reference: patent US12102682B1, “Injectable photothermal hydrogel based on melanin, preparation method, and application thereof” (OCEAN UNIVERSITY OF CHINA, priority 2023, dated 2024)
# Counter-ions that a name gives are not always drawn.
# Assay: Body weight, organ index and HE histopathology of treated mice
# Format: in vivo
# Details: for Change in body weight: tumor-bearing mice, intratumoral injection, 14 days, DOX 5 mg/kg, ICG 1 mg/kg, LASER groups 808 nm 1 W/cm^2 5 min
# Experimental: Thirty female mice were randomly divided into 6 groups with 5 mice per group: (1) a saline group: injection of saline only; (2) a DOX group (5 mg/kg): injection of DOX; (3) a GEL/LASER group: a combined effect of the HPCS/MP hydrogel and NIR light irradiation; (4) a GEL/DOX (5 mg/kg) group: an effect of the HPCS/MP hydrogel encapsulating DOX·HCL; (5) a GEL/DOX (5 mg/kg)/LASER group: a combined effect of HPCS/MP hydrogel encapsulating DOX·HCL and NIR light irradiation, and (6) an indocyanine green (ICG) (1 mg/kg) group: injection of ICG. The different groups of mice were injected with 100 μL of saline, DOX, ICG, an HPCS/MP hydrogel precursor solution, and a GEL/DOX hydrogel precursor solution by intratumoral injection.
# In the laser irradiation group LASER was irradiated for 5 min using an laser of 808 nm at a power of 1 W/cm^2 on days 2, 4, 6, 8, 10, and 12 after drug administration, and an irradiated site was a tumor site visible to naked eyes, with a light source positioned 5 cm from a body surface. The date of irradiation was designated as day 1, and an observation period extended to 14 days. A tumor volume was measured with a vernier caliper and a weight of the mice was weighed using an electronic balance every two days, and then a curve of the tumor volume, the body weight, and time was plotted. On the 14th day, the mice were euthanized, and axillary tumor bodies and tissues of the heart, liver, spleen, lung, and kidney of the mice were collected. The weights of the tumors and organ tissues of the various groups were accurately measured and recorded to calculate a tumor inhibition rate and an organ index of each group. Then immunohistochemistry and HE staining were performed for pathological analysis.
smiles,measurement,setting,value
"COc1cccc2c1C(=O)c1c(O)c3c(c(O)c1C2=O)C[C@@](O)(C(=O)CO)C[C@@H]3O[C@H]1C[C@H](N)[C@H](O)[C@H](C)O1 [DOX, doxorubicin hydrochloride]",HE staining of liver sections compared with control group,"mice, 14th day",very loose
same,HE staining of lung tissues,"mice, 14th day",some degree of damage
same,HE staining of renal tissue sections,"mice, 14th day",some slight damage
same,HE staining of spleen tissues compared with control group,"mice, 14th day",tissues became loose
same,Liver index compared to control group,"mice, 14th day",significantly reduced
same,Change in body weight,,significant downward trend in the body weight
"CC1(C)C(/C=C/C=C/C=C/C=C2\N(CCCCS(=O)(=O)O)c3ccc4ccccc4c3C2(C)C)=[N+](CCCCS(=O)(=O)[O-])c2ccc3ccccc3c21 [ICG, indocyanine green]",HE staining of liver sections compared with control group,"mice, 14th day",slight loosening
same,Change in body weight,,decrease trend in the body weight
